# Data: patent US20230000816A1, “SODIUM-GLUCOSE LINKED TRANSPORTER INHIBITORS FOR THE MANAGEMENT OF CHRONIC KIDNEY DISEASE, HYPERTENSION, AND HEART FAILURE IN COMPANION ANIMALS” (INCREVET, INC., priority 2019, published 2023)
# What was measured:
# Sprague-Dawley rats = assay: PPAR-γ agonist (pioglitazone)-mediated fluid retention / plasma expansion model, 7 days, drugs in drinking water; format: in vivo, rat
# Description: It has been recognized in human clinical practice that an undesirable side effect of PPAR-γ agonists of the thiazolidinedione class is fluid retention and edema, which limits their use in patients with congestive heart failure. The mechanism of action of the thiazolidinediones is believed to be through stimulation of expression of the epithelial sodium channel (ENaC) in the kidney, resulting in an increased uptake of sodium ions from the distal tubule. Sodium retention and the associated expansion of extracellular fluid volume are characteristic features of congestive heart failure in multiple species. […] The sodium channel blocker amiloride was delivered in drinking water to a third group of rats as a comparator. Plasma expansion was measured by hematocrit. […] Food weight was recorded to measure consumption over the course of the experiment. […] Full bottles were pre-weighed and the weights recorded to allow consumption to be measured over the course of the experiment. On days 1 and 7, rats were warmed using a heating pad and lightly anesthetized using isoflurane. Using a sterile scalpel blade, a small tail nick was made on the distal one third of the tail. Blood was collected in a heparinized microcapillary tube sealed with putty at one end and stored on ice until centrifugation (5000 rpm, 5 min). Plasma volume was determined using a microhematocrit capillary tube reader card. On day 7, rats, food and water bottles were again weighed and recorded and hematocrits were determined using blood collected by a tail nick.
# [1] = test system: client-owned dogs with CKD; settings: cited from earlier work
# cats with CKD = settings: cited from earlier work; for reduction in urinary protein to creatinine ratio: cats, 7, 30, 60, 90, 120 and 180 days
# [2] = test system: client-owned cats with heart disease; settings: 151 client-owned cats with heart disease; cited from earlier work
# [3] = test system: dogs with stage C heart failure; settings: cited from earlier work; for median survival: dogs with stage C heart failure, composite primary endpoint
# [4] = test system: diabetic subjects with stage A3 albuminuria; settings: humans, median 2.62 years; cited from earlier work
# [5] = test system: human SGLT2 compared to human SGLT1; settings: compared with other SGLT inhibitors; cited from earlier work
# [6] = test system: dogs with stage B heart failure; settings: cited from earlier work
# [7] = rats, day 1 to day 7, mean ± SEM
# [8] = rats, pioglitazone diet, mean ± SEM
# [9] = rats, relative to day 1, mean ± SEM
smiles,measurement,setting,value
"N=C(N)NC(=O)c1nc(Cl)c(N)nc1N [Amiloride, reference compound]","Plasma volume, Day 7","Sprague-Dawley rats; rats after 7 days pioglitazone diet, group mean ± SEM",56.6 ± 0.4 % of blood volume
same,"Plasma volume, Day 1","Sprague-Dawley rats; rats on 0.03% pioglitazone diet, by hematocrit, group mean ± SEM",52.7 ± 0.9 % of blood volume
same,Effect on pioglitazone-mediated plasma expansion (conclusion),"Sprague-Dawley rats; rats, 7 days",markedly less effective than bexagliflozin
same,"Body Weight (%), Δ (percent mass gain)",Sprague-Dawley rats; [7],10.8 ± 0.7%
same,"Body Weight (g), Δ",Sprague-Dawley rats; [7],40.0 ± 2.8 g
same,"Plasma volume, Δ (day 1 to day 7)","Sprague-Dawley rats; rats, pioglitazone diet, group mean ± SEM",3.9 ± 0.7 % of blood volume
same,"Body Weight (g), Day 1",Sprague-Dawley rats; [8],370.0 ± 6.0 g
same,"Body Weight (g), Day 7",Sprague-Dawley rats; [8],410.0 ± 7.7 g
same,"Body Weight (%), Day 1",Sprague-Dawley rats; [9],100 ± 0%
same,"Body Weight (%), Day 7",Sprague-Dawley rats; [9],110.8 ± 0.7 %
CCOC(=O)[C@H](CCc1ccccc1)N[C@H]1CCc2ccccc2N(CC(=O)O)C1=O [benazepril],difference in renal survival time vs placebo,[1]; 49 client-owned dogs,significance was not realized
same,proteinuria (urinary protein to creatinine ratio),"[1]; dogs, p=0.0032",significantly improved
same,reduction in urinary protein to creatinine ratio,cats with CKD,not significant
same,primary endpoint of treatment failure,[2],no benefit
same,median survival,[3],140 days
Cc1ccc([C@@H]2O[C@H](CO)[C@@H](O)[C@H](O)[C@H]2O)cc1Cc1ccc(-c2ccc(F)cc2)s1 [canagliflozin],"risk of composite of end-stage kidney disease, doubling of serum creatinine, or renal or cardiovascular death, lower than placebo",[4],30%
CCc1ccc([C@@H]2O[C@H](CO)[C@@H](O)[C@H](O)[C@H]2O)cc1Cc1ccc2c(c1)OCCO2 [licogliflozin],selectivity for human SGLT2 compared to human SGLT1 (in words),[5],lower selectivity
Cc1cc(OCCCNCC(C)(C)C(N)=O)ccc1Cc1c(O[C@@H]2O[C@H](CO)[C@@H](O)[C@H](O)[C@H]2O)n[nH]c1C(C)C [mizagliflozin],selectivity for human SGLT2 compared to human SGLT1 (in words),[5],more active against SGLT1 than SGLT2
COc1ccc(-c2nc3ccc(C4=NNC(=O)CC4C)cc3[nH]2)cc1 (stereo not shown) [pimobendan],median time to the primary endpoint,"[6]; dogs with stage B heart failure, onset of CHF, cardiac-related death, or euthanasia, 95% CI: 856-NA",1228 days
same,hazard ratio,"[6]; pimobendan vs placebo, 95% CI: 0.47-0.87",0.64
same,median survival,[3],267 days
same,hazard ratio,"[3]; pimobendan vs benazepril, 95% CI 0.516 to 0.916, p=0.0099",0.688
CCOc1ccc(Cc2cc([C@@H]3O[C@H](SC)[C@@H](O)[C@H](O)[C@H]3O)ccc2Cl)cc1 [sotagliflozin],selectivity for human SGLT2 compared to human SGLT1 (in words),[5],lower selectivity
CCCc1nc2c(C)cc(-c3nc4ccccc4n3C)cc2n1Cc1ccc(-c2ccccc2C(=O)O)cc1 [telmisartan],comparison with benazepril,cats with CKD; cats with CKD,noninferior to benazepril
same,reduction in urinary protein to creatinine ratio,cats with CKD,significant at all time points
